{"source": "patent US20100113366A1", "about": "“USE OF PROLINE-RICH PEPTIDE DERIVED FROM HYPOTHALAMUS FOR THE MANUFACTURE OF A MEDICAMENT FOR THE TREATMENT AND/OR PROPHYLAXIS OF CATTLE LEUCOSIS” (priority 2005, published 2010)", "system": "cows with leucosis", "assay": "hematological and cytomorphological blood indices of cows with leucosis after PRP-1 administration in vivo", "conditions": "48 h after 1st and 2nd administration; microscopic analysis", "protocol": "The cows with leucosis were administered with the PRP-1 solution in concentration 1.57×10^−4 g in 1 ml in a dose of 4×10^−3 ml/kg live weight of animal twice in 48 h.\nThe blood samples were taken from the jugular vain of animal into the test tubes with anti-coagulant Trilon-B before administration, in 48 h after 1st and 2nd administrations, as well as in 33 days after the 2nd administration. The blood hematomorphological and cytomorphological studies were carried out according to the available methods of veterinary hematology.", "note": "Where no end group is shown, it is not given here.", "data": [{"sequence": "AGAPEPAEPAQPGVY [PRP-1, Ala-Gly-Ala-Pro-Glu-Pro-Ala-Glu-Pro-Ala-Gln-Pro-Gly-Val-Tyr]", "values": [{"measurement": "morphological changes of small lymphocytes with high resistance, neutrophils, eosinophils and monocytes in blood smears", "value": "no any morphological changes"}]}]}
